{
  "source": "patent US20030003071A1",
  "about": "“Hair growth stimulant” (priority 2000, published 2003)",
  "key": {"[1]": {"tested_on": "cultured rat hair follicle epithelial cells", "test": "Cell proliferation test using cultured rat hair follicle epithelial cells (alamar blue)", "format": "cell-based", "conditions": "object substance concentration 1.0×10^−5% in KBM medium, 2 days culture, negative control 0, positive control (insulin + hydrocortisone) 1", "source_text": "B. Rat Hair Follicle Epithelial Cells\n1. Collection of Rat Hair Follicle Epithelial Cells\n(1) Collection of Hair Follicles\nDorsal skin was collected from newborn (3˜4-day-old) rats, and this collected dorsal skin was soaked two pieces at a time in PBS (−) containing 1% PSF.\nLower parts such as subcutaneous fat and membranes were then removed from the dermal fat layer using dissecting scissors.\nNext, the dorsal skin was again soaked in PBS (−) containing 1% PSF, and was then soaked overnight at 4° C. in PBS (−) containing 0.25% trypsin (also containing 0.02% EDTA; likewise hereinafter). […]\nA cell freezing liquid (Cellbanker; made by DAIYATRON) was added to the hair follicle epithelial cells, the concentration was adjusted to 1.5×10^7 cells/ml, 1.5×10^7 cells were put into each freezing tube, and storage was carried out by freezing. The number of cells was calculated using a haemacyto meter. […]"}, "[2]": {"tested_on": "cultured human hair follicle epithelial cells", "test": "Cell proliferation test using cultured human hair follicle epithelial cells (alamar blue)", "format": "cell-based", "conditions": "object substance concentration 1.0×10^−5% in KBM medium, 2 days culture, negative control 0, positive control (insulin + hydrocortisone) 1", "description": "<Cell Proliferation Tests Using Cultured Hair Follicle Epithelial Cells>\nA. Human Hair Follicle Epithelial Cells\n1. Collection of Human Hair Follicle Epithelial Cells\nHair follicles in the growth period of the hair cycle were collected mechanically under a stereoscopic microscope from male human scalp skin obtained as a by-product from surgery.\nThe growth period hair follicles were treated for 30 minutes at 37° C. with Dulbecco's modified MEM (DMEM) containing 1000 U/ml dispase and 0.2% collagenase, and the dermal sheath, dermal papilla and hair bulb epithelial tissue were removed using the tip of an injection needle, and then treatment was carried out for 5 minutes at 37° C. with a phosphate buffer solution (PBS(−); ‘(−)’ means not containing calcium ions, magnesium ions etc.) containing 0.05% trypsin and 0.02% EDTA. […]\nNext, the cells were suspended in the above-mentioned serum-free medium, sowing was carried out in a collagen-coated (type I) culture dish at a density of 5000 cells/cm^2, medium exchange was carried out every 2 days until the cells became subconfluent, and then treatment was again carried out for 5 minutes at 37° C. with 0.05 wt % trypsin and 0.02% EDTA, the reaction was then stopped with an equivalent of 0.1% trypsin inhibitor, and centrifuging (800×g, 5 minutes) was carried out. […] The number of cells was calculated using a haemacyto meter. […]"}, "[3]": {"tested_on": "immortalized outer hair root sheath cells", "test": "Immortalized outer hair root sheath cell proliferation test (cellular DNA, Hoechst 33258)", "format": "cell-based, human", "conditions": "10 nM, 1 μM, 100 μM or 10 mM in KBM; 4 days culture; negative control = 100", "description": "<Immortalized Outer Hair Root Sheath Cell Proliferation Tests>\n[Culturing of Immortalized Outer Hair Root Sheath Cells]\nHair follicles were isolated from human scalp skin using scissors under a stereoscopic microscope. The hair follicles were cut off at the lower part of the sebaceous gland, and enzyme treatment was carried out with collagenase and dispase.\nThe hair bulb was cut off with scissors and excluded, and the hair shaft was separated with tweezers.\nThe hair shaft was subjected to enzyme treatment with trypsin, and then the reaction was stopped with trypsin inhibitor.\nCentrifuging was carried out, the supernatant was thrown away, and the outer hair root sheath cells were recovered. […]\nFirst generation cultured outer hair root sheath cells cultured until the cloning confluence of the cells was about 50% were washed with K-SFM, and then infection was carried out by adding the above-mentioned virus in a quantity of 1, 10 or 30 MOI (multiplicity of infection). […]\nThe cells were thawed, and were then added to each […], and smashed up with sonication. The cells were then transferred into a cuvette, and the fluorescence intensity was measured at an excitation wavelength of 356 nm and a fluorescence wavelength of 460 nm."}},
  "data": [
    {"compound": "CNCCS(=O)(=O)O", "note": "[N-methyltaurine]", "values": [
      {"measurement": "Cell proliferation effect (cell proliferation index)", "setting": "[1]", "value": 0.62},
      {"measurement": "Cell proliferation effect (cell proliferation index)", "setting": "[2]", "value": 0.64},
      {"measurement": "Immortalized outer hair root sheath cell activation action (extent of cell proliferation, relative DNA amount, FIG. 1)", "setting": "[3]", "value": "has an immortalized outer hair root sheath cell activation action"}
    ]}
  ]
}
